From a compilation of properties of binary mixtures (doi:10.1016/j.electacta.2009.09.024)

Test: xn = mol fraction of the nth substance listed
Details: 100 kPa, x2 = 0.25

O=S(=O)([N-]S(=O)(=O)C(F)(F)F)C(F)(F)F.[Rb+] + O=S(=O)([N-]S(=O)(=O)C(F)(F)F)C(F)(F)F.[Li+]
Details	electrical conductivity [S/m]	viscosity [mPa·s]
442.2 K	0.822	–
442.5 K	–	63.2
452.2 K	1.05	–
462.7 K	1.28	–
473.7 K	1.52	–
473.9 K	–	28.1
482.9 K	1.86	–
492.3 K	2.15	–
492.6 K	–	17.9
502.4 K	2.48	–
502.5 K	–	14.3
512.8 K	–	11.8
523.1 K	3.2	–
543.3 K	4.03	–
543.5 K	–	7.21
551.9 K	4.33	–
552.5 K	–	6.61
561.2 K	4.79	–
561.8 K	–	5.8
571.1 K	5.08	–
